Data on eleven compounds can be found in publication PMC9833666, “Designing and identifying β-hairpin peptide macrocycles with antibiotic potential” (Science Advances, 2023).

As usually defined, the MIC is the least concentration at which growth counts as inhibited. Higher therefore signals a need for much substance.

Data set [1] has as its system Single-donor human red blood cells. The data set is described as follows: Hemolysis assay. Format: cell-based. On the procedure: Single-donor human red blood cells (Innovative Research, no. IWB3ALS) were washed in PBS and adjusted to a concentration of 1 × 10^9 cells/ml. Each peptide was added individually to 200 μl of cells at a concentration of either 300 μg/ml (SySA library) or 128 μg/ml (SySA-5 optimization library) in a 96-well polypropylene plate (Corning, 3879). PBS alone and 1% Triton X-100 were used for background normalization and 100% hemolysis, respectively. Each reaction was set up in triplicate. Plates were incubated for 3 hours at 37°C. Following incubation, samples were centrifuged at 800g for 20 min, and 100 μl of supernatant was transferred to a flat-bottom 96-well plate (Genesse, 25-104). Percent hemolysis for each sample was determined by normalizing the absorbance at 540 nm for each sample to the average background and dividing by the average absorbance for 1% Triton X-100 (100% hemolysis). Error bars represent 1 SD of triplicate samples.

For data set [2], the system named is Acinetobacter baumannii AB5075. On the procedure:
MICs were performed by a modifiedClinical and Laboratory Standards Institute) procedure. […] Separately, E. coli W3110 or A. baumannii AB5075 was grown overnight in 5 ml of standard MH at 37°C. Cells from these cultures were diluted to a concentration of 5 × 10^5 to 6 × 10^5 cells/ml in either standard MH, MHII, RPMI, or fetal bovine serum, and 90 μl was added to each well of the 96-well plate containing diluted peptide. Plates were wrapped twice in parafilm and incubated at 37°C for 18 to 24 hours. Wells were examined by eye against wells with no bacteria for signs of growth. MICs were reported as the minimum concentration with no observable growth. In cases where triplicate samples differed, the concentration supported by the median of the three replicates was reported. […]
For consistency, all SynCH peptides were resuspended at 10 mg/ml in water. Peptides were then visually inspected for any lack of solubility (Data File S1). […]
We had this library commercially synthesized and tested its ability to inhibit the growth of Acinetobacter baumannii AB5075, a clinically isolated Carbapenem Resistant Acinetobacter (CRA) pathogen. MICs were performed in MH as well as 100% FBS, which is likely more representative of the in vivo environment. […]

A further data set relates to Escherichia coli W3110. Format: cell-based. Particulars: W3110.

Read-outs that look alike come from different tables or passages of the source. Bridge positions count the residues as written; N and C are the ends. Peptide text beside a SMILES is read from it. Where only a bound is given, the exact number is not on record here.

For the compound `CC(C)C[C@@H]1NC(=O)[C@H](CCCNC(=N)N)NC(=O)CNC(=O)[C@H](CCCNC(=N)N)NC(=O)[C@H](CCCNC(=N)N)NC(=O)[C@H](CC(N)=O)NC(=O)[C@H](CC(N)=O)NC(=O)[C@H](CC(C)C)NC(=O)[C@H](CCCNC(=N)N)NC(=O)[C@H](C(C)C)NC(=O)[C@H](CCCNC(=N)N)NC(=O)[C@H](CC(C)C)NC(=O)[C@@H](N)CSSC[C@@H](C(=O)O)NC(=O)[C@H](C(C)C)NC(=O)[C@H](CCC(N)=O)NC(=O)[C@H](CC(C)C)NC(=O)[C@H](CO)NC(=O)[C@H](C(C)C)NC(=O)[C@H](CCCNC(=N)N)NC1=O` [SyPA-8] (H-CLRVRLNNRRGRLRVSLQVC-OH; disulfide 1-20), in data set [1], the “%Hemo” value was found to be 2.87%.
Consider `CC[C@H](C)[C@@H]1NC(=O)[C@H](CCCNC(=N)N)NC(=O)[C@H](CC(C)C)NC(=O)[C@@H](N)CSSC[C@@H](C(=O)O)NC(=O)[C@H](C(C)C)NC(=O)[C@H](CCC(N)=O)NC(=O)[C@H](CC(C)C)NC(=O)[C@H](CO)NC(=O)[C@H](C(C)C)NC(=O)[C@H](CCCNC(=N)N)NC(=O)[C@H](CC(C)C)NC(=O)CNC(=O)[C@H](CCCNC(=N)N)NC(=O)[C@H](CCCNC(=N)N)NC(=O)[C@H](CCCNC(=N)N)NC(=O)[C@H](CC(=O)O)NC(=O)[C@H](CC(N)=O)NC(=O)[C@H](CC(C)C)NC(=O)[C@H](CCCNC(=N)N)NC1=O` [SyPA-5] (H-CLRIRLNDRRRGLRVSLQVC-OH; disulfide 1-20), for which the “%Hemo” value in data set [1] worked out at 1.89%.
For `CC(C)C[C@@H]1NC(=O)[C@H](CCCNC(=N)N)NC(=O)[C@H](CCCNC(=N)N)NC(=O)[C@H](CCCNC(=N)N)NC(=O)CNC(=O)[C@H](CC(N)=O)NC(=O)[C@H](CC(N)=O)NC(=O)[C@H](CC(C)C)NC(=O)[C@H](CCCNC(=N)N)NC(=O)[C@H](C(C)C)NC(=O)[C@H](CCCNC(=N)N)NC(=O)[C@H](C(C)C)NC(=O)[C@@H](N)CSSC[C@@H](C(=O)O)NC(=O)[C@H](C(C)C)NC(=O)[C@H](CCC(N)=O)NC(=O)[C@H](CC(C)C)NC(=O)[C@H](CO)NC(=O)[C@H](C(C)C)NC(=O)[C@H](CCCCN)NC1=O` [SyPA-1] (H-CVRVRLNNGRRRLKVSLQVC-OH; disulfide 1-20), the “%Hemo” value in data set [1] amounted to 1.30%.
Consider `CC[C@H](C)[C@@H]1NC(=O)[C@H](CCCNC(=N)N)NC(=O)[C@H](CC(C)C)NC(=O)[C@@H](N)CSSC[C@@H](C(=O)O)NC(=O)[C@H](C(C)C)NC(=O)[C@H](CCC(N)=O)NC(=O)[C@H](C(C)C)NC(=O)[C@H](CO)NC(=O)[C@H](C(C)C)NC(=O)[C@H](CCCNC(=N)N)NC(=O)[C@H](CC(C)C)NC(=O)CNC(=O)[C@H](CCCNC(=N)N)NC(=O)[C@H](CCCNC(=N)N)NC(=O)CNC(=O)[C@H](CC(N)=O)NC(=O)[C@H](CC(N)=O)NC(=O)[C@H](CC(C)C)NC(=O)[C@H](CCCNC(=N)N)NC1=O` [SyPA-4] (H-CLRIRLNNGRRGLRVSVQVC-OH; disulfide 1-20), for which the “%Hemo” value in data set [1] turned out to be 1.59%.
In the case of `CC(C)C[C@@H]1NC(=O)[C@H](CO)NC(=O)[C@H](C(C)C)NC(=O)[C@H](CCCCN)NC(=O)[C@H](CCCNC(=N)N)NC(=O)CNC(=O)[C@H](CCCNC(=N)N)NC(=O)[C@H](CCCNC(=N)N)NC(=O)[C@H](CCCNC(=N)N)NC(=O)[C@H](CC(C)C)NC(=O)[C@H](CCCNC(=N)N)NC(=O)[C@H](C(C)C)NC(=O)[C@H](CCCNC(=N)N)NC(=O)[C@@H](N)CSSC[C@@H](C(=O)O)NC(=O)[C@H](CCCNC(=N)N)NC1=O` [SySA-5.24] (H-CRVRLRRRGRKVSLRC-OH; disulfide 1-16), in data set [2] (AB5075), the “AB5075 MIC FBS” value is over 128 µg/mL and the “AB5075 MIC MH” value worked out at 16 µg/mL.
The matching figures for `CC(C)C[C@@H]1NC(=O)[C@H](CO)NC(=O)[C@H](C(C)C)NC(=O)[C@H](CCCCN)NC(=O)[C@H](C(C)C)NC(=O)[C@H](CCCNC(=N)N)NC(=O)CNC(=O)[C@H](CCCNC(=N)N)NC(=O)[C@H](CCCNC(=N)N)NC(=O)[C@H](CC(N)=O)NC(=O)[C@H](CC(N)=O)NC(=O)[C@H](CC(C)C)NC(=O)[C@H](CCCNC(=N)N)NC(=O)[C@H](C(C)C)NC(=O)[C@H](CCCNC(=N)N)NC(=O)[C@@H](N)CSSC[C@@H](C(=O)O)NC(=O)[C@H](CCC(N)=O)NC1=O` [SySA-5.5] (H-CRVRLNNRRGRVKVSLQC-OH; disulfide 1-18): over 128 µg/mL and 8 µg/mL.
In the case of Protegrin-1 [reference compound], in the data set with Escherichia coli W3110, the MIC was 0.5 to 4 µg/mL, the “W3110 MIC MH” value was found to be 0.5 µg/mL and the “W3110 MIC RPMI” value turned out to be 0.5 µg/mL. Besides, the “AB5075 MIC FBS” value in data set [2] (100% fetal bovine serum, median of triplicate) amounted to 32 µg/mL. Also, the “AB5075 MIC MH” value in data set [2] (Mueller-Hinton, median of triplicate) was 1 µg/mL.
`CC(C)C[C@@H]1NC(=O)[C@H](CCCNC(=N)N)NC(=O)[C@H](C(C)C)NC(=O)[C@H](CCCNC(=N)N)NC(=O)[C@H](CC(C)C)NC(=O)[C@@H](N)CSSC[C@@H](C(=O)O)NC(=O)[C@H](C(C)C)NC(=O)[C@H](CCCNC(=N)N)NC(=O)[C@H](CC(C)C)NC(=O)[C@H](CO)NC(=O)[C@H](C(C)C)NC(=O)[C@H](CCCCN)NC(=O)[C@H](C(C)C)NC(=O)[C@H](CCCNC(=N)N)NC(=O)CNC(=O)[C@H](CCCNC(=N)N)NC(=O)[C@H](CCCNC(=N)N)NC(=O)[C@H](CC(N)=O)NC(=O)[C@H](CCCNC(=N)N)NC1=O` [SySA-5.1] (H-CLRVRLRNRRGRVKVSLRVC-OH; disulfide 1-20): in data set [2] (AB5075), the “AB5075 MIC FBS” value amounted to 128 µg/mL and the “AB5075 MIC MH” value was 8 µg/mL.
Turning to `CC(C)C[C@@H]1NC(=O)[C@H](CCCNC(=N)N)NC(=O)[C@H](C(C)C)NC(=O)[C@H](CCCCN)NC(=O)[C@H](CCCNC(=N)N)NC(=O)[C@H](CCCNC(=N)N)NC(=O)[C@H](CCCNC(=N)N)NC(=O)[C@H](CCCNC(=N)N)NC(=O)[C@H](CC(C)C)NC(=O)[C@H](CCCNC(=N)N)NC(=O)[C@H](C(C)C)NC(=O)[C@H](CCCNC(=N)N)NC(=O)[C@H](CC(C)C)NC(=O)[C@@H](N)CSSC[C@@H](C(=O)O)NC(=O)[C@H](C(C)C)NC(=O)[C@H](CCC(N)=O)NC1=O` [SySA-5.19] (H-CLRVRLRRRRKVRLQVC-OH; disulfide 1-17), in data set [2] (AB5075), the “AB5075 MIC FBS” value was over 128 µg/mL and the “AB5075 MIC MH” value is 4 µg/mL.
On to `CC(C)C[C@@H]1NC(=O)[C@H](CO)NC(=O)[C@H](C(C)C)NC(=O)[C@H](CCCCN)NC(=O)[C@H](C(C)C)NC(=O)[C@H](CCCNC(=N)N)NC(=O)CNC(=O)[C@H](CCCNC(=N)N)NC(=O)[C@H](CCCNC(=N)N)NC(=O)[C@H](CC(N)=O)NC(=O)[C@H](CCCNC(=N)N)NC(=O)[C@H](CC(C)C)NC(=O)[C@H](CCCNC(=N)N)NC(=O)[C@H](C(C)C)NC(=O)[C@H](CCCNC(=N)N)NC(=O)[C@@H](N)CSSC[C@@H](C(=O)O)NC(=O)[C@H](CCCNC(=N)N)NC1=O` [SySA-5.6] (H-CRVRLRNRRGRVKVSLRC-OH; disulfide 1-18), for which, in data set [2] (AB5075), the “AB5075 MIC FBS” value amounted to 128 µg/mL and the “AB5075 MIC MH” value was determined as 4 µg/mL.
As for `CC(C)C[C@@H]1NC(=O)[C@H](CO)NC(=O)[C@H](C(C)C)NC(=O)[C@H](CCCCN)NC(=O)[C@H](CCCNC(=N)N)NC(=O)[C@H](CCCNC(=N)N)NC(=O)[C@H](CCCNC(=N)N)NC(=O)[C@H](CC(N)=O)NC(=O)[C@H](CC(C)C)NC(=O)[C@H](CCCNC(=N)N)NC(=O)[C@H](C(C)C)NC(=O)[C@H](CCCNC(=N)N)NC(=O)[C@H](CC(C)C)NC(=O)[C@@H](N)CSSC[C@@H](C(=O)O)NC(=O)[C@H](C(C)C)NC(=O)[C@H](CCC(N)=O)NC1=O` [SySA-5.18] (H-CLRVRLNRRRKVSLQVC-OH; disulfide 1-17), in data set [2] (AB5075), the “AB5075 MIC FBS” value was 128 µg/mL and the “AB5075 MIC MH” value was found to be 8 µg/mL.
